These results are taken from ChEMBL document CHEMBL1123367, “Furanose-pyranose isomerization of reduced pyrimidine and cyclic urea ribosides” (J Med Chem, 1986).

Each structure is given as a SMILES string.

A short description of data set [1]: Half-life of the initial pseudo-first-order isomerization at apparent pH 2.8 and 37 degree celsius. As to conditions: read-out: T1/2 app (converted). The class given is ADME.
Data set [2] is described as follows: Half-life of the initial pseudo-first-order isomerization at apparent pH 2.0 and 25 degree celsius. The format is ADME. As to conditions: read-out: T1/2 app (converted).
A short description of data set [3]: Half-life of the initial pseudo-first-order isomerization at apparent pH 1.0 and 25 degree celsius. The format is ADME. The following applies: read-out: T1/2 app.
Data set [4] is described as follows: Half-life of the initial pseudo-first-order isomerization at apparent pH 1.0 and 37 degree celsius. The following applies: read-out: T1/2 app (converted). The class given is ADME.
The next data set deals with Cytidine deaminase (Mus musculus, UniProt P56389). Put plainly: Compound was tested […] for its ability to inhibit mouse kidney cytidine deaminase (CDA).
Cytidine deaminase, sequence (P56389 whole entry): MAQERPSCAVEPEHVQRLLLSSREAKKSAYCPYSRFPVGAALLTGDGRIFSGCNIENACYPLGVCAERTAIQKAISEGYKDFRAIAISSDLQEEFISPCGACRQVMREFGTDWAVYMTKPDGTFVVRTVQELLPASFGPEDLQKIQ

For the molecule `O=C1NCCCN1[C@@H]1O[C@H](CO)[C@@H](O)[C@H]1O`, the half-life in data set [1] was 5.2 h; in data set [2], 2.23 h; in data set [3], below 0.2 h; in data set [4] it was 0.63 h.
By Ki is commonly meant the equilibrium dissociation constant of an inhibitor or competing ligand from its target. Molecule `O=C1NCCCCN1[C@@H]1OC[C@@H](O)[C@@H](O)[C@H]1O` showed an inhibitory constant (Ki) on Cytidine deaminase of 6.6 µM.
On the same count and under the same terms, in the case of `O=C1NCCCN1C1OC[C@@H](O)[C@H](O)[C@@H]1O` (stereo partly specified) it was above 50 µM.
